How the values were obtained:
[1] = tested on: Rhizoctonia solani (RHIZSO); test: microbe, parasite or virus in culture; assay type: cell-based
[2] = tested on: Ustilago maydis (USTIMA); test: microbe, parasite or virus in culture; assay type: cell-based
Further: test concentration or dose not given here.

Row | SMILES | RHIZSO in vitro Growth Inhibition [1] | USTIMA in vitro Growth Inhibition [2]
1 | CCC1(C)OCC(NC(=O)c2nccc(OC)c2O)CO1 (stereo not drawn) [Compound 314] | − (key: +: at least 80% growth inhibition; −: less than 80% growth inhibition) | − (key: +: at least 80% growth inhibition; −: less than 80% growth inhibition)
2 | CC1(C)CC(NC(=O)c2ncccc2O)CC(C)(C2CC2)C1 (stereo not drawn) [Compound 204] | − (key: +: at least 80% growth inhibition; −: less than 80% growth inhibition) | − (key: +: at least 80% growth inhibition; −: less than 80% growth inhibition)
3 | COc1ccnc(C(=O)NC2c3ccccc3CC2(C)C)c1O (stereo not drawn) [Compound 284] | − (key: +: at least 80% growth inhibition; −: less than 80% growth inhibition) | − (key: +: at least 80% growth inhibition; −: less than 80% growth inhibition)
4 | COc1ccnc(C(=O)NC2CCCC2=O)c1O (stereo not drawn) [Compound 249] | − (key: +: at least 80% growth inhibition; −: less than 80% growth inhibition) | − (key: +: at least 80% growth inhibition; −: less than 80% growth inhibition)
5 | COc1ccnc(C(=O)N[C@H]2C(O)[C@@H]3CC[C@H]2[C@@H]2CCCC[C@@H]23)c1O (stereo partly drawn) [Compound 293] | − (key: +: at least 80% growth inhibition; −: less than 80% growth inhibition) | − (key: +: at least 80% growth inhibition; −: less than 80% growth inhibition)
6 | COC(=O)C(CO)NC(=O)c1nccc(OC)c1O (stereo not drawn) [Compound 340] | − (key: +: at least 80% growth inhibition; −: less than 80% growth inhibition) | − (key: +: at least 80% growth inhibition; −: less than 80% growth inhibition)
7 | COc1ccnc(C(=O)N[C@@H]2CC3CC2C2C(=O)N(CC(C)C)C(=O)C32)c1O (stereo partly drawn) [Compound 303] | − (key: +: at least 80% growth inhibition; −: less than 80% growth inhibition) | − (key: +: at least 80% growth inhibition; −: less than 80% growth inhibition)
8 | COc1ccnc(C(=O)NC2O[C@H](CO)[C@H]3OC(C)(C)O[C@@H]23)c1O (stereo partly drawn) [Compound 329] | − (key: +: at least 80% growth inhibition; −: less than 80% growth inhibition) | − (key: +: at least 80% growth inhibition; −: less than 80% growth inhibition)
9 | CC1(C)CC(NC(=O)c2ncccc2O)CC(C)(C)C1=O [Compound 205] | − (key: +: at least 80% growth inhibition; −: less than 80% growth inhibition) | − (key: +: at least 80% growth inhibition; −: less than 80% growth inhibition)
10 | O=C(Nc1nccs1)c1ncccc1O [Compound 235] | + (key: +: at least 80% growth inhibition; −: less than 80% growth inhibition) | + (key: +: at least 80% growth inhibition; −: less than 80% growth inhibition)
11 | COc1ccnc(C(=O)N[C@@H]2CC3CC2C[C@@H]3COCc2cccc(C(F)(F)F)c2)c1O (stereo partly drawn) [Compound 297] | + (key: +: at least 80% growth inhibition; −: less than 80% growth inhibition) | − (key: +: at least 80% growth inhibition; −: less than 80% growth inhibition)
12 | O=C(NCc1ccc(Cl)c(Cl)c1)c1ncccc1O [Compound 221] | − (key: +: at least 80% growth inhibition; −: less than 80% growth inhibition) | − (key: +: at least 80% growth inhibition; −: less than 80% growth inhibition)
13 | COc1ccnc(C(=O)N[C@H]2CC[C@@H](Oc3ccc(C(F)(F)F)cc3)CC2)c1O [Compound 271] | + (key: +: at least 80% growth inhibition; −: less than 80% growth inhibition) | + (key: +: at least 80% growth inhibition; −: less than 80% growth inhibition)
14 | CCCCCCCCCNC(=O)c1ncccc1O [Compound 201] | − (key: +: at least 80% growth inhibition; −: less than 80% growth inhibition) | − (key: +: at least 80% growth inhibition; −: less than 80% growth inhibition)
15 | C[C@@H](NC(=O)c1ncccc1O)c1cccc2ccccc12 [Compound 231] | − (key: +: at least 80% growth inhibition; −: less than 80% growth inhibition) | − (key: +: at least 80% growth inhibition; −: less than 80% growth inhibition)
16 | CCCCC1(C)CC(NC(=O)c2nccc(OC)c2O)CC(C)(C)C1 (stereo not drawn) [Compound 253] | − (key: +: at least 80% growth inhibition; −: less than 80% growth inhibition) | − (key: +: at least 80% growth inhibition; −: less than 80% growth inhibition)

Row | SMILES | RHIZSO in vitro Growth Inhibition [1] | USTIMA in vitro Growth Inhibition [2]
17 | COc1ccnc(C(=O)NC2C[C@H](C)O[C@](C)(Cc3ccccc3)C2)c1O (stereo partly drawn) [Compound 313] | − (key: +: at least 80% growth inhibition; −: less than 80% growth inhibition) | − (key: +: at least 80% growth inhibition; −: less than 80% growth inhibition)
18 | COc1ccnc(C(=O)NC2CC(C)(C)C=CC=C2C)c1O (stereo not drawn) [Compound 278] | − (key: +: at least 80% growth inhibition; −: less than 80% growth inhibition) | − (key: +: at least 80% growth inhibition; −: less than 80% growth inhibition)
19 | COc1ccnc(C(=O)NC2C3CSC2CN(Cc2ccccc2)C3)c1O (stereo not drawn) [Compound 325] | − (key: +: at least 80% growth inhibition; −: less than 80% growth inhibition) | − (key: +: at least 80% growth inhibition; −: less than 80% growth inhibition)
20 | COc1ccnc(C(=O)NC2CC(C)(C)C(Cl)C(Cl)[C@H](C)[C@H]2C)c1O (stereo partly drawn) [Compound 281] | − (key: +: at least 80% growth inhibition; −: less than 80% growth inhibition) | − (key: +: at least 80% growth inhibition; −: less than 80% growth inhibition)
21 | COc1ccnc(C(=O)NCC#CCCl)c1O [Compound 239] | − (key: +: at least 80% growth inhibition; −: less than 80% growth inhibition) | − (key: +: at least 80% growth inhibition; −: less than 80% growth inhibition)
22 | O=C(NCc1cccc(Cl)c1)c1ncccc1O [Compound 219] | + (key: +: at least 80% growth inhibition; −: less than 80% growth inhibition) | + (key: +: at least 80% growth inhibition; −: less than 80% growth inhibition)
23 | COc1ccnc(C(=O)NC2CC(C)(C)C3OC3[C@H](C)[C@H]2C)c1O (stereo partly drawn) [Compound 280] | − (key: +: at least 80% growth inhibition; −: less than 80% growth inhibition) | − (key: +: at least 80% growth inhibition; −: less than 80% growth inhibition)
24 | COc1ccnc(C(=O)N[C@@H]2OC[C@@H](OCc3ccccc3)[C@H](OCc3ccccc3)[C@H]2OCc2ccccc2)c1O [Compound 332] | − (key: +: at least 80% growth inhibition; −: less than 80% growth inhibition) | − (key: +: at least 80% growth inhibition; −: less than 80% growth inhibition)
25 | COc1ccnc(C(=O)NC2CC(C)(C)CC(C)(C3CC3)C2)c1O (stereo not drawn) [Compound 252] | + (key: +: at least 80% growth inhibition; −: less than 80% growth inhibition) | − (key: +: at least 80% growth inhibition; −: less than 80% growth inhibition)
26 | CCCO[C@@H]1[C@@H](OCCC)[C@H](OCCC)CO[C@H]1NC(=O)c1nccc(OC)c1O [Compound 331] | − (key: +: at least 80% growth inhibition; −: less than 80% growth inhibition) | − (key: +: at least 80% growth inhibition; −: less than 80% growth inhibition)
27 | COc1ccnc(C(=O)NC2CC(C)(C)CC(C)(C(=O)c3ccccc3)C2)c1O (stereo not drawn) [Compound 260] | − (key: +: at least 80% growth inhibition; −: less than 80% growth inhibition) | − (key: +: at least 80% growth inhibition; −: less than 80% growth inhibition)
28 | CC(NC(=O)c1ncccc1O)c1ccccc1 (stereo not drawn) [Compound 229] | − (key: +: at least 80% growth inhibition; −: less than 80% growth inhibition) | − (key: +: at least 80% growth inhibition; −: less than 80% growth inhibition)
29 | COc1ccc(CNC(=O)c2ncccc2O)cc1 [Compound 226] | − (key: +: at least 80% growth inhibition; −: less than 80% growth inhibition) | − (key: +: at least 80% growth inhibition; −: less than 80% growth inhibition)
30 | O=C(NC1CCC(O)CC1)c1ncccc1O (stereo not drawn) [Compound 208] | − (key: +: at least 80% growth inhibition; −: less than 80% growth inhibition) | − (key: +: at least 80% growth inhibition; −: less than 80% growth inhibition)
31 | COc1ccnc(C(=O)NC2CCCC2O)c1O (stereo not drawn) [Compound 248] | − (key: +: at least 80% growth inhibition; −: less than 80% growth inhibition) | − (key: +: at least 80% growth inhibition; −: less than 80% growth inhibition)
32 | COc1ccnc(C(=O)NC2CCN(C(=O)c3ccccc3)CC2)c1O [Compound 308] |  | − (key: +: at least 80% growth inhibition; −: less than 80% growth inhibition)

From patent US7034035B2, “Fungicidal mono-, bi-, and tri-cycloheteroalkyl amides and their compositions, methods of use and preparation” (priority 1999, dated 2006)
